From US9914958B2, “Nucleic acid-based linkers for detecting and measuring interactions” (President and Fellows of Harvard College, priority 2011, dated 2018)

Molecular target: streptavidin (Streptomyces avidinii, UniProt P22629)
Assay: DNA nanoswitch gel electrophoresis assay of biotin-streptavidin dissociation kinetics
Format: binding
Conditions: for dissociation time: 150 mM salt, multiplied by two to represent a single biotin-streptavidin interaction
Text: Linkers were designed according to protocols for long (2580 bp) and short (600 bp) loops as described herein. […] All other oligos were the same as those used previously. Briefly, looped constructs were made by mixing a long single-stranded DNA (M13mp18, in this case) with over 121 oligos that are complementary along its length. […] The constructs come together by self-assembly with a temperature ramp heating and cooling them.
Recognizing that the nanoswitch conformation informs the receptor-ligand binding state (bound or unbound), and that the conformation can be observed on a gel, an assay to measure bulk interaction kinetics was developed. The assay, conceptually shown in FIG. 7, proceeds as follows: 1) form a looped nucleic acid (DNA) construct that relies on a receptor and a ligand being bound to each other, 2) quench the interaction between the receptor and the ligand, for example, with excess receptor or ligand to prevent rebinding following dissociation, 3) monitor the relative amount of looped construct over time to measure kinetics.
Linear double-stranded DNA constructs 7249 base pairs (bp) in length were self-assembled by combining the single-stranded M13 bacteriophage genome with 121 complementary oligos. (See also Halvorsen K et al., 2011). Two of the oligos were labeled with single biotins and placed 2580 bp from each other, such that interaction with streptavidin induced the formation of a 2580 bp loop in the structure. […] The entire array of 16 conditions with five time points each plus controls was then run on a single 96 lane agarose gel (FIG. 8).
To determine the biotin-streptavidin dissociation kinetics, an image of the gel was analyzed using publicly available software (ImageJ). The gel analysis tool in ImageJ was used to measure the integrated intensity of the band containing looped construct, and this quantity was normalized by the integrated intensity of a reference band in the same lane from a DNA ladder, which was added to the construct prior to starting experiments. Individual time constants for each experimental condition were determined by fitting a single exponential decay to the data using an error weighted least squares fitting.

Sequence of streptavidin (P22629 25-183, species assumed): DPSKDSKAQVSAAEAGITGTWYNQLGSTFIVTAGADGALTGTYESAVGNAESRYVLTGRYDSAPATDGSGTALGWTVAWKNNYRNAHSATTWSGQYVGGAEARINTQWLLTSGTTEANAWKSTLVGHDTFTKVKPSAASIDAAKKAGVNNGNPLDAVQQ

O=C(O)CCCC[C@@H]1SC[C@@H]2NC(=O)N[C@@H]21 [biotin]
dissociation time (25° C.): 148 ± 10 h
dissociation time (37° C.): 11.2 ± 3 h
time constants, range over the conditions tested (16 conditions: four salts, four temperatures (4° C. to 50° C., 5 mM to 500 mM)): half of an hour to two months
time constants, range (FIG. 8 legend) (16 experimental conditions, FIG. 8 table): less than 1 hour to over 1000 hours
variation of off-rate with temperature (at a given salt concentration, from 4° C. to 50° C.): over 100 fold
change of off-rate with salt (at a given temperature, from 5 mM to 500 mM): less than 2 fold
fastest off-rate measured (as a time) (high temperature): 40 min
